{"source": "patent US11230711B2", "about": "“Inhibition of LET7I as a means to enhance the protective effect of progesterone against stroke” (UNIVERSITY OF NORTH TEXAS HEALTH SCIENCE CENTER, priority 2017, dated 2022)", "key": {"Pgrmc1": {"test_system": "Pgrmc1", "test": "Pgrmc1 protein in the penumbra after MCAo (Western blot)", "format": "in vivo, mouse", "conditions": "MCAo mice; day 7 and day 14; FIG. 11B", "excerpt": "(§1) (FIG. 11A) Representative immunoblots probed for Pgrmc1, pro- and mature-BDNF. (FIG. 11B) Quantitation graph of relative Pgrmc1 protein ratio to Gapdh (n=4-5 per group). (FIG. 11C) Quantitation graph of relative pro-BDNF protein ratio to Gapdh (n=4-5 per group). (FIG. 11D) Quantitation graph of relative mature BDNF protein ratio to Gapdh (n=4-5 per group). (FIG. 11E) Quantitation graph of relative let-7i expression in ischemic brain (n=4-5 per group). n.s: not significant, ** P<0.01 and *P<0.05 compared to sham, and #P<0.05 compared to P4+scrambled. Data are presented as the mean±SEM.\n(§2) Primary cortical astrocytes and mouse brains were lysed with RIPA lysis buffer containing protease and phosphatase inhibitors, as previously described (44). After homogenization, samples were centrifuged at 45,000 rpm for 30 min at 4° C. and supernatants were collected. Total protein concentrations were determined using the Bio-Rad DC protein assay kit (Bio-Rad Laboratories). Cell lysates were separated by SDS-PAGE and transferred onto polyvinylidene fluoride membrane (Bio-Rad Laboratories) by electroblotting. Membranes were blocked with 5% skim milk in tris-buffered saline containing 0.2% Tween 20 (TBS-T) for 1 h at room temperature, followed by overnight incubations of primary antibodies at 4° C. […]"}, "BDNF": {"test_system": "BDNF", "test": "pro- and mature BDNF protein in the penumbra after MCAo (Western blot)", "format": "in vivo, mouse", "conditions": "MCAo mice; 14 days post stroke, compared to sham; FIG. 11D", "excerpt": "as §1, §2"}, "[1]": {"test_system": "primary cortical astrocytes", "conditions": "10 nM P4; reported in reference (10); cited from earlier work"}, "synaptophysin (SYP)": {"test_system": "synaptophysin (SYP)", "test": "Synaptophysin (SYP) protein and puncta in the penumbra after MCAo (immunofluorescence, Western blot)", "format": "in vivo, mouse", "conditions": "MCAo mice", "excerpt": "FIGS. 14A-14D: Inhibition of let-7i enhances progesterone (P4)'s effect on the expression of synaptophysin in the penumbra. (FIG. 14A) Representative confocal images of penumbra region staining for synaptophysin (SYP, red) and DAPI (blue). (60×, Scale bars=30 μm). (FIG. 14B) Quantification of average relative SYP puncta presents in each field (n=3 per group). n.s: not significant and ***P<0.001 compared to sham, ### P<0.001 and ##P<0.01 compared to P4+scrambled. (FIG. 14C) Representative immunoblots probed for SYP protein. (FIG. 14D) Quantification graph of Syp signal, expressed as a ratio to Gapdh (n=4-5 per group). n.s: not significant, ***P<0.001 and **P<0.01 compared to sham, ## P<0.01 and #P<0.05 compared to P4+scrambled.\nPrimary cortical astrocytes and mouse brains were lysed with RIPA lysis buffer containing protease and phosphatase inhibitors, as previously described (44). […] Total protein concentrations were determined using the Bio-Rad DC protein assay kit (Bio-Rad Laboratories). […]\nMouse brains were fixed in 4% PFA overnight at 4° C. and subsequently cryoprotected in 30% sucrose solution. […] After immunostaining, sections were mounted onto microscope slides with Vectashield mounting medium (Vector Laboratories) and observed under a confocal fluorescence microscope (FV1200, Olympus) with a […] objective. […]"}}, "data": [{"smiles": "CC(=O)[C@H]1CC[C@H]2[C@@H]3CCC4=CC(=O)CC[C@]4(C)[C@H]3CC[C@]12C", "note": "[P4, progesterone]", "values": [{"measurement": "Pgrmc1 protein level in the penumbra", "setting": "Pgrmc1", "result": "did not restore"}, {"measurement": "mature BDNF level in the penumbra", "setting": "BDNF", "result": "able to maintain the same level"}, {"measurement": "release of BDNF from astrocytes", "setting": "[1]", "result": "maximal release of BDNF"}, {"measurement": "SYP total protein expression in the penumbra", "setting": "synaptophysin (SYP); day 7 and day 14, FIG. 14D", "result": "delayed, but sustained, restoration"}, {"measurement": "number of SYP puncta in the penumbra", "setting": "synaptophysin (SYP); day 14, FIG. 14B", "result": "positive effect"}]}]}
